Laboratory results reported in the NIST ThermoML archive (doi:10.1016/j.fluid.2008.09.022).

Assay: relative permittivity at various frequencies (dimensionless)
Conditions: Liquid, Frequency=0.01 MHz, Parallel plate capacitor

CC(F)(F)F [1,1,1-trifluoroethane]
Conditions	relative permittivity
218.12 K, 2000 kPa	16.968
218.13 K, 3000 kPa	17.006
218.16 K, 4000 kPa	17.043
218.17 K, 5000 kPa	17.076
218.18 K, 11000 kPa	17.303
218.19 K, 6000 kPa	17.111
218.21 K, 7000 kPa	17.147
218.22 K, 10000 kPa	17.264
218.23 K, 8000 kPa	17.184
218.23 K, 9000 kPa	17.224
218.24 K, 12000 kPa	17.326
218.43 K, 13000 kPa	17.338
218.45 K, 14000 kPa	17.37
218.48 K, 15000 kPa	17.403
223.96 K, 15000 kPa	16.732
223.97 K, 13000 kPa	16.66
223.97 K, 14000 kPa	16.696
223.98 K, 12000 kPa	16.622
224 K, 2000 kPa	16.227
224 K, 3000 kPa	16.267
224 K, 4000 kPa	16.308
224 K, 5000 kPa	16.349
224 K, 6000 kPa	16.389
224 K, 7000 kPa	16.432
224 K, 8000 kPa	16.486
224 K, 9000 kPa	16.506
224 K, 10000 kPa	16.547
224 K, 11000 kPa	16.582
232.97 K, 14000 kPa	15.659
232.97 K, 15000 kPa	15.697
232.98 K, 13000 kPa	15.622
232.99 K, 9000 kPa	15.465
232.99 K, 10000 kPa	15.503
232.99 K, 12000 kPa	15.581
233 K, 6000 kPa	15.343
233 K, 7000 kPa	15.387
233 K, 8000 kPa	15.424
233 K, 11000 kPa	15.543
233.01 K, 2000 kPa	15.164
233.01 K, 3000 kPa	15.207
233.01 K, 4000 kPa	15.253
233.01 K, 5000 kPa	15.298
243.15 K, 14000 kPa	14.59
243.15 K, 15000 kPa	14.629
243.16 K, 2000 kPa	14.061
243.16 K, 3000 kPa	14.108
243.16 K, 4000 kPa	14.158
243.16 K, 5000 kPa	14.203
243.16 K, 6000 kPa	14.254
243.16 K, 7000 kPa	14.298
243.16 K, 9000 kPa	14.386
243.16 K, 10000 kPa	14.43
243.16 K, 11000 kPa	14.469
243.16 K, 12000 kPa	14.51
243.16 K, 13000 kPa	14.552
243.17 K, 8000 kPa	14.34
253.13 K, 2000 kPa	13.05
253.13 K, 6000 kPa	13.264
253.13 K, 8000 kPa	13.362
253.13 K, 9000 kPa	13.407
253.13 K, 15000 kPa	13.669
253.14 K, 3000 kPa	13.106
253.14 K, 4000 kPa	13.16
253.14 K, 5000 kPa	13.209
253.14 K, 7000 kPa	13.311
253.14 K, 10000 kPa	13.455
253.14 K, 11000 kPa	13.5
253.14 K, 12000 kPa	13.543
253.14 K, 14000 kPa	13.628
253.15 K, 13000 kPa	13.585
263.02 K, 2000 kPa	12.145
263.02 K, 12000 kPa	12.685
263.02 K, 13000 kPa	12.733
263.03 K, 3000 kPa	12.203
263.03 K, 4000 kPa	12.264
263.03 K, 6000 kPa	12.379
263.03 K, 7000 kPa	12.431
263.03 K, 8000 kPa	12.485
263.03 K, 10000 kPa	12.586
263.03 K, 11000 kPa	12.636
263.03 K, 14000 kPa	12.777
263.03 K, 15000 kPa	12.821
263.04 K, 5000 kPa	12.319
263.04 K, 9000 kPa	12.536
274.42 K, 2000 kPa	11.141
274.42 K, 3000 kPa	11.215
274.42 K, 4000 kPa	11.284
274.43 K, 5000 kPa	11.346
274.43 K, 6000 kPa	11.411
274.43 K, 7000 kPa	11.471
274.43 K, 9000 kPa	11.588
274.43 K, 10000 kPa	11.644
274.43 K, 12000 kPa	11.749
274.44 K, 8000 kPa	11.528
274.44 K, 11000 kPa	11.696
274.44 K, 13000 kPa	11.798
274.44 K, 14000 kPa	11.846
274.44 K, 15000 kPa	11.895
283.16 K, 2000 kPa	10.568
283.16 K, 3000 kPa	10.641
283.16 K, 4000 kPa	10.72
283.16 K, 5000 kPa	10.796
283.17 K, 6000 kPa	10.867
283.17 K, 7000 kPa	10.936
283.17 K, 8000 kPa	11.002
283.17 K, 9000 kPa	11.066
283.18 K, 10000 kPa	11.125
283.18 K, 11000 kPa	11.183
283.18 K, 12000 kPa	11.239
283.19 K, 13000 kPa	11.293
283.19 K, 14000 kPa	11.346
283.2 K, 15000 kPa	11.397
294.1 K, 2000 kPa	9.617
294.1 K, 3000 kPa	9.7189
294.11 K, 4000 kPa	9.8137
294.11 K, 5000 kPa	9.9019
294.11 K, 6000 kPa	9.9864
294.11 K, 7000 kPa	10.066
294.11 K, 9000 kPa	10.213
294.11 K, 10000 kPa	10.281
294.11 K, 11000 kPa	10.347
294.11 K, 15000 kPa	10.585
294.12 K, 8000 kPa	10.141
294.12 K, 12000 kPa	10.409
294.12 K, 13000 kPa	10.469
294.12 K, 14000 kPa	10.526
